Assay [1] addresses T1, Tyrosine-protein phosphatase non-receptor type 11 (Homo sapiens, UniProt Q06124).
T1 sequence (Q06124 whole entry): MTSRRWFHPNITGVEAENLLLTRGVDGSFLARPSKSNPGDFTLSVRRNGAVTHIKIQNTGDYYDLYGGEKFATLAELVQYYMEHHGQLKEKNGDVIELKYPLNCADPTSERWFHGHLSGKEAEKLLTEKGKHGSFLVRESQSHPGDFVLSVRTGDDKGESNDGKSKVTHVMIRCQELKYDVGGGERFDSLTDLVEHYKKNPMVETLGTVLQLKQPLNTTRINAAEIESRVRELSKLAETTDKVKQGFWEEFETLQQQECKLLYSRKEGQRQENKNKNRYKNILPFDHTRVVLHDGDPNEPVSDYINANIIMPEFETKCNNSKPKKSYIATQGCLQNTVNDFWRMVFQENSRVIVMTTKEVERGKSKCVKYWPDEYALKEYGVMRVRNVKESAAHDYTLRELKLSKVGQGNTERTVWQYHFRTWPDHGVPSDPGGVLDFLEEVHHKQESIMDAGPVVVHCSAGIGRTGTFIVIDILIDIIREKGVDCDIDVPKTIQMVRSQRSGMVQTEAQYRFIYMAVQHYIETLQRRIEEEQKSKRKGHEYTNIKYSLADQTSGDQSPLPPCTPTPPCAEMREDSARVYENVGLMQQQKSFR
Nature of the assay: Inhibition of human SHP2 as hydrolysis of pNPP after 2 mins.

The target of assay [2] is Tyrosine-protein phosphatase non-receptor type 6 (Homo sapiens, UniProt P29350). Description: Inhibition of human SHP1 as hydrolysis of pNPP after 2 mins.
Sequence of Tyrosine-protein phosphatase non-receptor type 6 (P29350 whole entry): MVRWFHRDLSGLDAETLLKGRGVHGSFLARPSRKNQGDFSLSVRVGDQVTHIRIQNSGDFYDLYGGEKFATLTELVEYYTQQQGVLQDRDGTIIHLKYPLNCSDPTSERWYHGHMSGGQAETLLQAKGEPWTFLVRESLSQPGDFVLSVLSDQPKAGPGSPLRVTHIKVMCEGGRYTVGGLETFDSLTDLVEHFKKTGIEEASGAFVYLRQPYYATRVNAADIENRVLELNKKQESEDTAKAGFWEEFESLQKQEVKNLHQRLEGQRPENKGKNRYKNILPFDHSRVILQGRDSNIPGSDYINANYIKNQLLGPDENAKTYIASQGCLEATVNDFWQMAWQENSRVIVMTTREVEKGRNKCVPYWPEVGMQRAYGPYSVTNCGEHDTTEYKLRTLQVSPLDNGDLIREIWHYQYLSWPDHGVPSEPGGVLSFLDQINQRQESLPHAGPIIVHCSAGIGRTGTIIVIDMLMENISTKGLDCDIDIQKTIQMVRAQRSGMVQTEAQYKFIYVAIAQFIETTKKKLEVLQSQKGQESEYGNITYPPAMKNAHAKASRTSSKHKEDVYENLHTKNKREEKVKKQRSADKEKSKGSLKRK
The target in assay [3] is T2, Tyrosine-protein phosphatase non-receptor type 2 (Homo sapiens, UniProt P17706).
T2 sequence (P17706 whole entry): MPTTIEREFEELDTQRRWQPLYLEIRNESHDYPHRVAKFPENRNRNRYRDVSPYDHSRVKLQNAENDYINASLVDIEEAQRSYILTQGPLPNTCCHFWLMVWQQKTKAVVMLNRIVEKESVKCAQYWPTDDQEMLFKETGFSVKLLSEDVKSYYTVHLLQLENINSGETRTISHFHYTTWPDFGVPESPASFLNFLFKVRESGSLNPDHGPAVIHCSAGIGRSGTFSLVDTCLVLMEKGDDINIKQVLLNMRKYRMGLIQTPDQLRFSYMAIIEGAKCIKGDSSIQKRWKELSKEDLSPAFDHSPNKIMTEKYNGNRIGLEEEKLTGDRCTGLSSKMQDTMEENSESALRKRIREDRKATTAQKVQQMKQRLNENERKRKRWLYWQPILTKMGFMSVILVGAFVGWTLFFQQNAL
Description: Inhibition of human TCPTP as hydrolysis of pNPP after 2 mins.

The target in assay [4] is Receptor-type tyrosine-protein phosphatase F (Homo sapiens, UniProt P10586). Nature of the assay: Inhibition of human LAR as hydrolysis of pNPP after 2 mins.
Sequence of Receptor-type tyrosine-protein phosphatase F (P10586 whole entry): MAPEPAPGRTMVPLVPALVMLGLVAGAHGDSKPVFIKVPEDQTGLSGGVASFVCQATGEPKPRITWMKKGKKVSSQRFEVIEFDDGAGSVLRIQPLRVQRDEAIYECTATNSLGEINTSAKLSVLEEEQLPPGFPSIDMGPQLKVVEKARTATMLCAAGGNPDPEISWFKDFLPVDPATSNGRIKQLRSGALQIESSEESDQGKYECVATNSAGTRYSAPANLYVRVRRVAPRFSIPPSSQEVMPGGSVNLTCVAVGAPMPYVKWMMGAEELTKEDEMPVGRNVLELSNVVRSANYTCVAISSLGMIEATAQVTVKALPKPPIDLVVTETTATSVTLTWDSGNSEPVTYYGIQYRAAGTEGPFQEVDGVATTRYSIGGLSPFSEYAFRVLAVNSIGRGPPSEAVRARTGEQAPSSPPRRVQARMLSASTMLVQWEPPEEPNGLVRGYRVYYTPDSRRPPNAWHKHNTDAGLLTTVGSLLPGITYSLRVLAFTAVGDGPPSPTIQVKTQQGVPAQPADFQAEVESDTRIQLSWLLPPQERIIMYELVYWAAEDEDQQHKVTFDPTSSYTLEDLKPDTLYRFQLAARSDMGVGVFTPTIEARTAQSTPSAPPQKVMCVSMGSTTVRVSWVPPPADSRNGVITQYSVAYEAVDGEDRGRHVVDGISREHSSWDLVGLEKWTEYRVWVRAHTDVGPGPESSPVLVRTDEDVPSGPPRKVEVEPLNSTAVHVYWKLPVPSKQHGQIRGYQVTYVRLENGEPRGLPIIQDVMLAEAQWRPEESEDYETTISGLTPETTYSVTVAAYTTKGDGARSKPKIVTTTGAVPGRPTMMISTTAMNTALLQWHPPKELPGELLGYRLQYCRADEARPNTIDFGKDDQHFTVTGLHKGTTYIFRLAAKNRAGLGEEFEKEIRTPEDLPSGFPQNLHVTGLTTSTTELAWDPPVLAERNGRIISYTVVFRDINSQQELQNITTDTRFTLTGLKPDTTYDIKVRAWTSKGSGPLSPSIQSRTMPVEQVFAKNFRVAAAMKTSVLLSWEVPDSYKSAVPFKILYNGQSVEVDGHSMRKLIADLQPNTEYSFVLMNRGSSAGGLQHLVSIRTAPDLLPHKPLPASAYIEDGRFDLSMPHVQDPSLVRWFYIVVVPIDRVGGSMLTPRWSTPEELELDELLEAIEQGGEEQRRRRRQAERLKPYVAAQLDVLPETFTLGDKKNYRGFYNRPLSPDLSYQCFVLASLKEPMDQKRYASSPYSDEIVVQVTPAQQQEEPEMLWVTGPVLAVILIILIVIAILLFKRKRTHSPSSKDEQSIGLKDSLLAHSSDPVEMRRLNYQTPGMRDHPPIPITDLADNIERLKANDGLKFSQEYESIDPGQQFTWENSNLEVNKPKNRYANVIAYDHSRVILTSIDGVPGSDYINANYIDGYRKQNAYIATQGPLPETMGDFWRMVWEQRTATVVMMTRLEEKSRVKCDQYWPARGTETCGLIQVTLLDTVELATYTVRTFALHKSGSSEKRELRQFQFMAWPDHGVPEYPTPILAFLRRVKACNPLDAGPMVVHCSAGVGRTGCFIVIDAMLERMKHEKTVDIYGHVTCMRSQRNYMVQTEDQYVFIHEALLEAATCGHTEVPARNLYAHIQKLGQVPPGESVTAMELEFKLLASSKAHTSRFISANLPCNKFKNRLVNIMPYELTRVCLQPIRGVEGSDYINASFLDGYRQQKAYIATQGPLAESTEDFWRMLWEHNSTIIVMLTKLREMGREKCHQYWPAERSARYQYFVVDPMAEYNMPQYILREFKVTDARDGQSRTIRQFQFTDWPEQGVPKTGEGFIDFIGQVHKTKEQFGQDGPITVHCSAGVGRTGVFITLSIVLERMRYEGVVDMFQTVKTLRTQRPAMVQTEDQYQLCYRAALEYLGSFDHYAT
The target of assay [5] is T3, Tyrosine-protein phosphatase non-receptor type 1 (Homo sapiens, UniProt P18031).
T3 sequence (P18031 whole entry): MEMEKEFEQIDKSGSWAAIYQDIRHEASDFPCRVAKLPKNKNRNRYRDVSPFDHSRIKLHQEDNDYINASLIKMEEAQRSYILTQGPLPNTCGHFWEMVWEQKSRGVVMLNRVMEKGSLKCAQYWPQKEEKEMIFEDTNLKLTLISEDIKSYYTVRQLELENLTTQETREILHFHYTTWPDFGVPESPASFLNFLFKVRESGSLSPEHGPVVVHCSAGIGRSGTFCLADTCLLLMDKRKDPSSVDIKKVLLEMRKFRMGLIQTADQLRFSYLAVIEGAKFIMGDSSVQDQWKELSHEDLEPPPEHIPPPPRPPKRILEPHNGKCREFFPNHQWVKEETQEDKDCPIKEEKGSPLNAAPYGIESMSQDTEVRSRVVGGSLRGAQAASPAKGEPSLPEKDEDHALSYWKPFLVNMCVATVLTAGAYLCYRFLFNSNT
Nature of the assay: Inhibition of recombinant human PTP1B catalytic domain assessed as hydrolysis of pNPP after 2 mins.

As usually defined, the IC50 is the midpoint of a concentration-inhibition curve.

Some results are limits rather than exact numbers.

As to `COC(=O)CCCOc1ccc(-c2cccc(-c3noc(Cc4c[nH]c5ccccc45)n3)c2)cc1`, the IC50 in assay [1], in assay [2], in assay [3], in assay [4] and in assay [5] was greater than 120 µM each time.
With `Cc1ccccc1-c1cccc(-c2noc(Cc3c[nH]c4ccccc34)n2)c1`, the concentration for half-maximal inhibition (IC50) in assay [1] is greater than 120 µM; in assay [2], greater than 120 µM; in assay [3], greater than 120 µM; in assay [4], greater than 120 µM; in assay [5], 24.4 µM.
In the case of `Brc1ccc(-c2noc(Cc3c[nH]c4ccccc34)n2)s1`, the half-maximal inhibitory concentration (IC50) in assay [1] is greater than 120 µM; in assay [2], greater than 120 µM; in assay [3] it was greater than 120 µM; in assay [4], greater than 120 µM; in assay [5] it was 14.1 µM.
In the case of `CCCOc1ccc(-c2cccc(-c3noc(Cc4c[nH]c5ccccc45)n3)n2)cc1`, the IC50 was greater than 120 µM in assay [1]; greater than 120 µM in assay [2]; greater than 120 µM in assay [3]; greater than 120 µM in assay [4]; 9.66 µM in assay [5].
In the case of `COC(=O)CCCOc1ccc(-c2ccc(-c3noc(Cc4c[nH]c5ccccc45)n3)s2)cc1`, the IC50 in assay [1], in assay [2], in assay [3], in assay [4] and in assay [5] was greater than 120 µM each time.
For the compound `Cc1cccc(-c2ccc(-c3noc(Cc4c[nH]c5ccccc45)n3)s2)c1`, the IC50 in assay [1], in assay [2], in assay [3], in assay [4] and in assay [5] was greater than 120 µM throughout.
Take `CCOc1ccc(-c2ccc(-c3noc(Cc4c[nH]c5ccccc45)n3)s2)cc1`: the IC50 is greater than 120 µM in assay [1]; greater than 120 µM in assay [2]; greater than 120 µM in assay [3]; greater than 120 µM in assay [4]; 17.3 µM in assay [5].
`Nc1ccc(-c2ccc(-c3noc(Cc4c[nH]c5ccccc45)n3)s2)cc1`: the IC50 in assay [1], in assay [2], in assay [3], in assay [4] and in assay [5] was greater than 120 µM throughout.
As for `CCOc1ccc(-c2cccc(-c3noc(Cc4c[nH]c5ccccc45)n3)n2)cc1`, the IC50 in assay [1] is greater than 120 µM; in assay [2], greater than 120 µM; in assay [3] it was greater than 120 µM; in assay [4], greater than 120 µM; in assay [5], 31.5 µM.
For the compound `CCOc1ccc(-c2cccc(-c3noc(Cc4c[nH]c5ccccc45)n3)c2)cc1`, the IC50 was greater than 120 µM in assay [1]; greater than 120 µM in assay [2]; greater than 120 µM in assay [3]; greater than 120 µM in assay [4]; 15.9 µM in assay [5].
For the compound `CCCc1ccc(-c2cccc(-c3noc(Cc4c[nH]c5ccccc45)n3)c2)cc1`, the 50% inhibitory concentration (IC50) in assay [1], in assay [2], in assay [3], in assay [4] and in assay [5] was greater than 120 µM in each case.
As for `CCCOc1ccc(-c2ccc(-c3noc(Cc4c[nH]c5ccccc45)n3)s2)cc1`, the IC50 was greater than 120 µM in assay [1]; greater than 120 µM in assay [2]; greater than 120 µM in assay [3]; greater than 120 µM in assay [4]; 13.7 µM in assay [5].
Consider `CC1(C)CC[C@]2(C(=O)O)CC[C@]3(C)C(=CC[C@@H]4[C@@]5(C)CC[C@H](O)C(C)(C)[C@@H]5CC[C@]43C)[C@@H]2C1` [OLEANOLIC_ACID], for which the IC50 in assay [1] and in assay [4] was greater than 120 µM throughout.
For the compound `CCCCc1ccc(-c2ccc(-c3noc(Cc4c[nH]c5ccccc45)n3)s2)cc1`, the IC50 in assay [1] was greater than 120 µM; in assay [2] it was greater than 120 µM; in assay [3], greater than 120 µM; in assay [4], greater than 120 µM; in assay [5], 8.96 µM.
Turning to `CCCc1ccc(-c2ccc(-c3noc(Cc4c[nH]c5ccccc45)n3)s2)cc1`, the IC50 in assay [1] was greater than 120 µM; in assay [2], greater than 120 µM; in assay [3], greater than 120 µM; in assay [4], greater than 120 µM; in assay [5], 12.5 µM.
Turning to `CCCOc1ccc(-c2cccc(-c3noc(Cc4c[nH]c5ccccc45)n3)c2)cc1`, the IC50 is greater than 120 µM in assay [1]; greater than 120 µM in assay [2]; greater than 120 µM in assay [3]; greater than 120 µM in assay [4]; 18.4 µM in assay [5].
`Cc1cccc(-c2cccc(-c3noc(Cc4c[nH]c5ccccc45)n3)c2)c1`: the IC50 was greater than 120 µM in assay [1]; greater than 120 µM in assay [2]; greater than 120 µM in assay [3]; greater than 120 µM in assay [4]; 15.8 µM in assay [5].
As for `CCc1ccc(-c2ccc(-c3noc(Cc4c[nH]c5ccccc45)n3)s2)cc1`, the half-inhibitory concentration (IC50) in assay [1] was greater than 120 µM; in assay [2] it was greater than 120 µM; in assay [3] it was greater than 120 µM; in assay [4], greater than 120 µM; in assay [5], 13.1 µM.
In the case of `Cc1cccc(-c2cccc(-c3noc(Cc4c[nH]c5ccccc45)n3)n2)c1`, the IC50 was greater than 120 µM in assay [1]; greater than 120 µM in assay [2]; greater than 120 µM in assay [3]; greater than 120 µM in assay [4]; 21.7 µM in assay [5].
Take `CCCCc1ccc(-c2cccc(-c3noc(Cc4c[nH]c5ccccc45)n3)n2)cc1`: the IC50 is greater than 120 µM in assay [1]; greater than 120 µM in assay [2]; greater than 120 µM in assay [3]; greater than 120 µM in assay [4]; 9.66 µM in assay [5].
As to `Cc1ccccc1-c1cccc(-c2noc(Cc3c[nH]c4ccccc34)n2)n1`, the IC50 in assay [1] was greater than 120 µM; in assay [2], greater than 120 µM; in assay [3], greater than 120 µM; in assay [4] it was greater than 120 µM; in assay [5] it was 26.1 µM.
Consider `Brc1cccc(-c2noc(Cc3c[nH]c4ccccc34)n2)n1`, for which the IC50 in assay [1], in assay [2], in assay [3], in assay [4] and in assay [5] was greater than 120 µM throughout.
Take `Brc1cccc(-c2noc(Cc3c[nH]c4ccccc34)n2)c1`: the IC50 in assay [1] is greater than 120 µM; in assay [2], greater than 120 µM; in assay [3], greater than 120 µM; in assay [4], greater than 120 µM; in assay [5] it was 19.7 µM.
Regarding `CCCCc1ccc(-c2cccc(-c3noc(Cc4c[nH]c5ccccc45)n3)c2)cc1`, the IC50 in assay [1] was greater than 120 µM; in assay [2], greater than 120 µM; in assay [3], greater than 120 µM; in assay [4] it was greater than 120 µM; in assay [5], 8.8 µM.
On to `Oc1ccc(-c2cccc(-c3noc(Cc4c[nH]c5ccccc45)n3)c2)cc1`, for which the IC50 in assay [1] was greater than 120 µM; in assay [2], greater than 120 µM; in assay [3], greater than 120 µM; in assay [4], greater than 120 µM; in assay [5], 21.9 µM.
For the compound `Cc1ccccc1-c1ccc(-c2noc(Cc3c[nH]c4ccccc34)n2)s1`, the half-inhibitory concentration (IC50) in assay [1] was greater than 120 µM; in assay [2], greater than 120 µM; in assay [3] it was greater than 120 µM; in assay [4], greater than 120 µM; in assay [5], 16.8 µM.
On to `Nc1ccc(-c2cccc(-c3noc(Cc4c[nH]c5ccccc45)n3)c2)cc1`, for which the IC50 in assay [1], in assay [2], in assay [3], in assay [4] and in assay [5] was greater than 120 µM throughout.

These data come from ChEMBL document CHEMBL3758136, “Design, synthesis and in vitro activity of phidianidine B derivatives as novel PTP1B inhibitors with specific selectivity” (Bioorg Med Chem Lett, 2016).
